Where two headings read alike, the source gives them in different places.

One test deals with CMV-polymerase (Human cytomegalovirus (strain AD169) (HHV-5) (Human herpesvirus 5), UniProt P08546). Put plainly: biochemical.
For the next test, the system named is CMV. Briefly: microbe, parasite or virus in culture. The class given is cell-based. The following applies: Human betaherpesvirus 5, 72 h, read-out: CMV-Luc Cellular EC50, NN-NHDF cells, MOI 1, 72 hrs.
Where [1] appears, read: CMV-polymerase Biochemical IC50.
The mark [2] stands for this setting: read-out: CMV-polymerase Biochemical IC50.

Usually IC50 stands for the concentration that inhibits the measured activity by half. One may read the EC50 as the concentration that produces a half-maximal response. Turning to `Cn1nc(C(=O)NCc2ccc(C#N)cc2)c2c1C(=O)N(CC1(S(=O)(=O)C3(C)COC3)CC1)CC2` [Example 172, N-(4-Cyanobenzyl)-1-methyl-6-((1-((3-methyloxetan-3-yl)sulfonyl)cyclopropyl)methyl)-7-oxo-4,5,6,7-tetrahydro-1H-pyrazolo[3,4-c]pyridine-3-carboxamide], the IC50 at CMV-polymerase (setting [1]) was 5 nM. In the test on CMV, the concentration giving a half-maximal response (EC50) amounted to 69 nM.

As for `COc1cc(CNC(=O)c2nn(C)c3c2CCN(CC2(S(=O)(=O)C4CC4)CC2)C3=O)ccc1C#N` [Example 15, N-(4-Cyano-3-methoxybenzyl)-6-((1-(cyclopropylsulfonyl)cyclopropyl)methyl)-1-methyl-7-oxo-4,5,6,7-tetrahydro-1H-pyrazolo[3,4-c]pyridine-3-carboxamide], the IC50 at CMV-polymerase (setting [2]) came to 11 nM. In the test with CMV, the EC50 turned out to be 162 nM.

Take `CC(C)(O)Cn1nc(C(=O)NCc2ccc(C#N)cc2)c2c1C(=O)N(CC1(S(C)(=O)=O)CC1)CC2` [Example 232, N-(4-Cyanobenzyl)-1-(2-hydroxy-2-methylpropyl)-6-((1-(methylsulfonyl)cyclopropyl)methyl)-7-oxo-4,5,6,7-tetrahydro-1H-pyrazolo[3,4-c]pyridine-3-carboxamide]: at CMV-polymerase (setting [2]), the IC50 came out at 6 nM. In addition, the EC50 in the test with CMV worked out at 160 nM.

As to `Cn1nc(C(=O)NCc2ccc(C#N)cc2)c2c1C(=O)N(CC1(S(=O)(=O)C(C)(C)COC(F)F)CC1)CC2` [Example 58, N-(4-Cyanobenzyl)-6-((1-((1-(difluoromethoxy)-2-methylpropan-2-yl)sulfonyl)cyclopropyl)methyl)-1-methyl-7-oxo-4,5,6,7-tetrahydro-1H-pyrazolo[3,4-c]pyridine-3-carboxamide], at CMV-polymerase (setting [2]), the IC50 came out at 1 nM. In addition, the EC50 in the test on CMV amounted to 25 nM.

Molecule `Cn1nc(C(=O)NCc2ccc(C#N)cc2)c2c1C(=O)N(CC1(S(=O)(=O)C(C)(C)CN3CC(F)C3)CC1)CC2` [Example 60, N-(4-Cyanobenzyl)-6-((1-((1-(3-fluoroazetidin-1-yl)-2-methylpropan-2-yl)sulfonyl)cyclopropyl)methyl)-1-methyl-7-oxo-4,5,6,7-tetrahydro-1H-pyrazolo[3,4-c]pyridine-3-carboxamide] had an IC50 against CMV-polymerase (setting [1]) of 2 nM. Moreover, in the test on CMV, the concentration giving a half-maximal response (EC50) turned out to be 62 nM.

In turn, `Cn1nc(C(=O)NCc2ccc(C#N)cc2)c2c1C(=O)N(CC1(S(=O)(=O)C(C)(C)[C@H](N)CO)CC1)CC2` [Example 213, (R)-6-((1-((3-Amino-4-hydroxy-2-methylbutan-2-yl)sulfonyl)cyclopropyl)methyl)-N-(4-cyanobenzyl)-1-methyl-7-oxo-4,5,6,7-tetrahydro-1H-pyrazolo[3,4-c]pyridine-3-carboxamide] gave an IC50 against CMV-polymerase (setting [1]) of 2 nM. Further, the EC50 with CMV was determined as 81 nM.

In the case of `CS(=O)(=O)C1(CN2CCc3c(C(=O)NCc4ccc(Cl)cc4)nn(CCO)c3C2=O)CC1` [Example 219, N-(4-Chlorobenzyl)-1-(2-hydroxyethyl)-6-((1-(methylsulfonyl)cyclopropyl)methyl)-7-oxo-4,5,6,7-tetrahydro-1H-pyrazolo[3,4-c]pyridine-3-carboxamide], the IC50 at CMV-polymerase (setting [2]) was 30 nM. Moreover, the 50% effective concentration (EC50) with CMV was 207 nM.

Consider `COC(=O)NCC(C)(C)S(=O)(=O)C1(CN2CCc3c(C(=O)NCc4ccc(C#N)cc4)nn(C)c3C2=O)CC1` [Example 73, Methyl (2-((1-((3-((4-cyanobenzyl)carbamoyl)-1-methyl-7-oxo-1,4,5,7-tetrahydro-6H-pyrazolo[3,4-c]pyridin-6-yl)methyl)cyclopropyl)sulfonyl)-2-methylpropyl)carbamate], for which, on CMV-polymerase (setting [2]), the IC50 turned out to be 2 nM. In the test with CMV, the EC50 was 53 nM.

On to `Cn1nc(C(=O)NCc2ccc(C#N)cc2)c2c1C(=O)N(CC1(S(=O)(=O)C(C)(C)[C@@H](O)CO)CC1)CC2` [Example 192, (S)-N-(4-Cyanobenzyl)-6-((1-((3,4-dihydroxy-2-methylbutan-2-yl)sulfonyl)cyclopropyl)methyl)-1-methyl-7-oxo-4,5,6,7-tetrahydro-1H-pyrazolo[3,4-c]pyridine-3-carboxamide], for which, at CMV-polymerase (setting [2]), the half-maximal inhibitory concentration (IC50) was 1 nM. In addition, the 50% effective concentration (EC50) in the test on CMV was 35 nM.

On to `C[C@@H](NC(=O)c1nn(C)c2c1CCN(CC1(S(=O)(=O)C(C)(C)CO)CC1)C2=O)c1ccc(C#N)cc1` [Example 55, (R)-N-(1-(4-Cyanophenyl)ethyl)-6-((1-((1-hydroxy-2-methylpropan-2-yl)sulfonyl)cyclopropyl)methyl)-1-methyl-7-oxo-4,5,6,7-tetrahydro-1H-pyrazolo[3,4-c]pyridine-3-carboxamide], for which the IC50 on CMV-polymerase (setting [2]) was determined as 601 nM. For the same molecule, the EC50 with CMV is greater than 10000 nM.

At CMV-polymerase (setting [1]), `Cn1nc(C(=O)NCc2ccc(C#N)cc2)c2c1C(=O)N(CC1(S(=O)(=O)[C@H]3C[C@H](O)C3)CC1)CC2` [Example 120, N-(4-Cyanobenzyl)-6-((1-(((1r,3r)-3-hydroxycyclobutyl)sulfonyl)cyclopropyl)methyl)-1-methyl-7-oxo-4,5,6,7-tetrahydro-1H-pyrazolo[3,4-c]pyridine-3-carboxamide] showed a half-maximal inhibitory concentration (IC50) of 3 nM. The EC50 in the test on CMV was determined as 151 nM.

Consider `Cn1nc(C(=O)NCc2ccc(C#N)cc2)c2c1C(=O)N(CC1(S(=O)(=O)N3C[C@@H](N)[C@H](O)C3)CC1)CC2` [Example 139, 6-((1-(((3R,4R)-3-Amino-4-hydroxypyrrolidin-1-yl)sulfonyl)cyclopropyl)methyl)-N-(4-cyanobenzyl)-1-methyl-7-oxo-4,5,6,7-tetrahydro-1H-pyrazolo[3,4-c]pyridine-3-carboxamide], for which the IC50 at CMV-polymerase (setting [2]) amounted to 8 nM. Moreover, in the test with CMV, the concentration for a half-maximal effect (EC50) was determined as 533 nM.

`CS(=O)(=O)C1(CN2CCc3c(C(=O)NCc4ccc(C#N)cc4)nn(CC4(CO)CC4)c3C2=O)CC1` [Example 48, N-(4-Cyanobenzyl)-1-((1-(hydroxymethyl)cyclopropyl)methyl)-6-((1-(methylsulfonyl)cyclopropyl)methyl)-7-oxo-4,5,6,7-tetrahydro-1H-pyrazolo[3,4-c]pyridine-3-carboxamide]: at CMV-polymerase (setting [1]), 11 nM corresponded to half-maximal inhibition (IC50). In addition, the EC50 with CMV is 331 nM.

Take `C[C@H](NC(=O)c1nn(C)c2c1CCN(CC1(S(=O)(=O)C3CC3)CC1)C2=O)c1ccc(C#N)cc1` [Example 16, (S)-N-(1-(4-Cyanophenyl)ethyl)-6-((1-(cyclopropylsulfonyl)cyclopropyl)methyl)-1-methyl-7-oxo-4,5,6,7-tetrahydro-1H-pyrazolo[3,4-c]pyridine-3-carboxamide]: the IC50 at CMV-polymerase (setting [2]) was determined as 13 nM. In the test on CMV, the concentration giving a half-maximal response (EC50) is 170 nM.

On CMV-polymerase (setting [1]), `CC1(C)COCCOCCn2nc(C(=O)NCc3ccc(Cl)cc3)c3c2C(=O)N(CC3)CC2(CC2)S1(=O)=O` [Example 240, Ethylene glycol macrocycle N-(4-chlorobenzyl)carboxamide] registered a 50% inhibitory concentration (IC50) of 1 nM. In addition, in the test on CMV, the EC50 was 43 nM.

Regarding `Cn1nc(C(=O)NCc2ccc(C#N)cc2)c2c1C(=O)N(CC1(S(=O)(=O)C(C)(C)CN3CCC(O)C3)CC1)CC2` (centres unmarked) [Example 68, N-(4-Cyanobenzyl)-6-((1-((1-(3-hydroxypyrrolidin-1-yl)-2-methylpropan-2-yl)sulfonyl)cyclopropyl)methyl)-1-methyl-7-oxo-4,5,6,7-tetrahydro-1H-pyrazolo[3,4-c]pyridine-3-carboxamide], the IC50 on CMV-polymerase (setting [2]) was found to be 1 nM. Further, the concentration giving a half-maximal response (EC50) in the test on CMV was 115 nM.

Consider `Cn1nc(C(=O)NCc2ccc(C#N)cc2)c2c1C(=O)N(CC1(S(=O)(=O)C(C)(C)C#N)CC1)CC2` [Example 59, N-(4-Cyanobenzyl)-6-((1-((2-cyanopropan-2-yl)sulfonyl)cyclopropyl)methyl)-1-methyl-7-oxo-4,5,6,7-tetrahydro-1H-pyrazolo[3,4-c]pyridine-3-carboxamide], for which, at CMV-polymerase (setting [1]), the concentration for half-maximal inhibition (IC50) turned out to be 1 nM. In addition, the half-maximal effective concentration (EC50) in the test on CMV was 33 nM.

On to `Cn1nc(C(=O)NCc2ccc(F)cc2)c2c1C(=O)N(CC1(S(=O)(=O)C3CC3)CC1)CC2` [Example 5, 6-((1-(Cyclopropylsulfonyl)cyclopropyl)methyl)-N-(4-fluorobenzyl)-1-methyl-7-oxo-4,5,6,7-tetrahydro-1H-pyrazolo[3,4-c]pyridine-3-carboxamide], for which the concentration for half-maximal inhibition (IC50) at CMV-polymerase (setting [2]) came out at 30 nM. Moreover, in the test with CMV, the EC50 amounted to 284 nM.

In the case of `CN1CCN(S(=O)(=O)C2(CN3CCc4c(C(=O)NCc5ccc(C#N)cc5)nn(C)c4C3=O)CC2)CC1` [Example 136, N-(4-Cyanobenzyl)-1-methyl-6-((1-((4-methylpiperazin-1-yl)sulfonyl)cyclopropyl)methyl)-7-oxo-4,5,6,7-tetrahydro-1H-pyrazolo[3,4-c]pyridine-3-carboxamide], on CMV-polymerase (setting [2]), the IC50 amounted to 18 nM. The EC50 in the test on CMV was 199 nM.

The molecule `N#Cc1ccc(CNC(=O)c2nn(CC3(CO)CC3)c3c2CCN(CC2(S(=O)(=O)C4CC4)CC2)C3=O)cc1` [Example 47, N-(4-Cyanobenzyl)-6-((1-(cyclopropylsulfonyl)cyclopropyl)methyl)-1-((1-(hydroxymethyl)cyclopropyl)methyl)-7-oxo-4,5,6,7-tetrahydro-1H-pyrazolo[3,4-c]pyridine-3-carboxamide] yielded a half-maximal inhibitory concentration (IC50) against CMV-polymerase (setting [1]) of 2 nM. The EC50 in the test with CMV was 42 nM.

For the molecule `Cc1ccc(CNC(=O)c2nn(C)c3c2CCN(CC2(S(=O)(=O)C4CC4)CC2)C3=O)cc1` [Example 8, 6-((1-(Cyclopropylsulfonyl)cyclopropyl)methyl)-1-methyl-N-(4-methylbenzyl)-7-oxo-4,5,6,7-tetrahydro-1H-pyrazolo[3,4-c]pyridine-3-carboxamide], on CMV-polymerase (setting [2]), the IC50 came to 35 nM. Moreover, the EC50 with CMV is 339 nM.

As for `Cn1nc(C(=O)NCc2ccc(C#N)cc2)c2c1C(=O)N(CC1(S(=O)(=O)C3(COCCN)CC3)CC1)CC2` [Example 96, 6-((1-((1-((2-aminoethoxy)methyl)cyclopropyl)sulfonyl)cyclopropyl)methyl)-N-(4-cyanobenzyl)-1-methyl-7-oxo-4,5,6,7-tetrahydro-1H-pyrazolo[3,4-c]pyridine-3-carboxamide], on CMV-polymerase (setting [2]), the IC50 is 1 nM. Besides, the EC50 in the test on CMV was 26 nM.

The record behind these values is patent US12338220B2, “Antiviral pyrazolopiridinone compounds” (Novartis AG, priority 2019, dated 2025).
